Test results from ChEMBL document CHEMBL1127220, “3-hydroxy-3-cyclobutene-1,2-dione: Application of novel carboxylic acid bioisostere to an in-vivo active non-tetrazole angiotensin-II antagonist” (Bioorg Med Chem Lett, 1993).

The compounds below were run on Rattus norvegicus (assay: Maximum % change of AII-supported portion of mean arterial pressure at 3 mg/kg, i.d.). Conditions: route intraduodenal.
Format: functional, Artery

SMILES | Change [%]
FC(F)(F)c1nc2c(c(NCc3ccc(-c4ccccc4-c4nn[nH]n4)cc3)n1)CCCC2 | -75
CCCCc1nc(Cl)c(CO)n1Cc1ccc(-c2ccccc2-c2nnn[nH]2)cc1 [LOSARTAN] | -72
O=C(O)c1ccccc1-c1ccc(CNc2nc(C(F)(F)F)nc3c2CCCC3)cc1 | -62
O=S(=O)(Nc1ccccc1-c1ccc(CNc2nc(C(F)(F)F)nc3c2CCCC3)cc1)C(F)(F)F | -31
O=c1c(O)c(-c2ccccc2-c2ccc(CNc3nc(C(F)(F)F)nc4c3CCCC4)cc2)c1=O | -52
